Data reported in patent publication US8546615B2, “Solid dapoxetine” (Symed Labs Limited, priority 2009, dated 2013).

Test: Storage/thermal stability of the solid form
Format: physicochemical
Settings: stable for any period of time, no test described

Row | Structure (SMILES) | temperature below which the solid is stable
1 | CN(C)[C@@H](CCOc1cccc2ccccc12)c1ccccc1 (racemic) [solid racemic dapoxetine] | below 45 °C
2 | CN(C)[C@@H](CCOc1cccc2ccccc12)c1ccccc1 (single isomer, unassigned) [solid dapoxetine S enantiomer] | below 60 °C
